From EP4755881A1 (Wuhan Createrna Science and Technology Co., Ltd., priority 2023, dated 2025)
Like-named read-outs stand apart in the source and are kept apart here.

Test: Pharmacokinetic study in rats (oral gavage and tail vein injection, plasma LC-MS/MS)
Format: in vivo
Details: rat; for Cmax: read-out: Cmax
Method: Male SPF-grade SD rats (Beijing Vital River Laboratory Animal Technology Co., Ltd.) with a body weight range of 200 to 250 g were used. After acclimatization, the rats were administered a clear solution of the compound of the present disclosure via oral gavage (Po, fasted overnight before administration with free access to water, food returned 4 hours after administration) and tail vein injection (Iv, free access to food and water throughout the administration). Blood samples were collected from the orbital venous plexus/jugular vein of rats at specified time points after administration (blood collection time points for the PO group: 0.167, 0.5, 1, 2, 4, 6, 8, and 24 h; for the IV group: 0.033, 0.167, 1, 2, 4, 6, 8, and 24 h). The concentration of compounds in plasma was detected by LC-MS/MS (AB SCIEX Qtrap4500). Data were analyzed using WinNonlin (version 5.2.1 Pharsight, Mountain View, CA) with a non-compartmental model to obtain PK parameters (including Cmax, C0, Tmax, AUClast, AUCinf, T1/2, etc.).
Table 3: Results of in vivo pharmacokinetic studies of compounds of the present disclosure in rats
The vehicle for the Po group compound was 5% DMSO + 5% ethanol + 60% PEG400 + 30% normal saline; the vehicle for the Iv group compound was 10% ethanol + 20% pure water + 70% PEG400 solution.

Structure (SMILES)	half-life (male, SD, iv, 1 mg/kg) [h]	half-life (male, SD, po, 1 mg/kg) [h]	AUC(0-t) (male, SD rats, Iv, 1 mg/kg) [ng·h/mL]	Cmax (male, SD rats, Iv, 1 mg/kg) [ng/mL]	AUC(0-t) (male, SD rats, Po, 1 mg/kg) [ng·h/mL]	Cmax (male, SD rats, Po, 1 mg/kg) [ng/mL]	AUC(0-t) (in vivo, SD rats, Iv, 1 mg/kg) [ng·h/mL]	Cmax (in vivo, SD rats, Iv, 1 mg/kg) [ng/mL]	half-life (in vivo, iv, 1 mg/kg, SD rats) [h]	further results
Cc1nc(-c2nnn(C)c2COC(=O)N(C)CCC(C)(F)F)ccc1C#C[C@@H]1CCC[C@H]1C(=O)O (racemic) [compound 282, trans-2-((6-(5-((((3,3-difluorobutyl)(methyl)carbamoyl)oxy)methyl)-1-methyl-1H-1,2,3-triazol-4-yl)-2-methylpyridin-3-yl)ethynyl)cyclopentane-1-carboxylic acid]	6.07	4.58	1200 to 3000	800 to 5000	1200 to 3000	200 to 800				
Cc1nc(-c2nnn(C)c2NC(=O)OC(C)CC(C)(F)F)ccc1C#CC1(CC(=O)O)CC1 (racemic) [compound 311]										AUC(0-t) (SD rats, Iv, 1 mg/kg): 5000 to 10000 ng·h/mL; half-life (SD rats, Iv, 1 mg/kg): 9.33 h; Cmax (SD rats, Iv, 1 mg/kg): 800 to 5000 ng/mL; AUC(0-t) (SD rats, Po, 1 mg/kg): 3000 to 5000 ng·h/mL; half-life (SD rats, Po, 1 mg/kg): 8.49 h; Cmax (SD rats, Po, 1 mg/kg): 200 to 800 ng/mL
Cc1nc(-c2nnn(C)c2COC(=O)N(C)CC2CCC2)ccc1C#CC1CC1C(=O)O (racemic) [compound 361]										AUC(0-t) (SD rats, Iv, 1 mg/kg): 1200 to 3000 ng·h/mL; half-life (SD rats, Iv, 1 mg/kg): 3.03 h; Cmax (SD rats, Iv, 1 mg/kg): 800 to 5000 ng/mL; AUC(0-t) (SD rats, Po, 1 mg/kg): 1200 to 3000 ng·h/mL; half-life (SD rats, Po, 1 mg/kg): 2.53 h; Cmax (SD rats, Po, 1 mg/kg): 200 to 800 ng/mL
CCC[C@H](C)OC(=O)Nc1c(-c2ccc(C#CC3(CC(=O)O)CC3)c(C)n2)nnn1C [010-B]							5000 to 10000	800 to 5000	8.56	AUC(0-t) (in vivo, SD rats, Po, 3 mg/kg): 10000 to 20000 ng·h/mL; Cmax (in vivo, SD rats, Po, 3 mg/kg): 800 to 5000 ng/mL; half-life (in vivo, po, 3 mg/kg, SD rats): 6.85 h
CCC(F)(F)[C@@H](C)OC(=O)Nc1c(-c2ccc(C#CC3(CC(=O)O)CC(OC)C3)c(C)n2)nnn1C (stereo partly drawn) [compound 279]										AUC(0-t) (SD rats, Iv, 1 mg/kg): 5000 to 10000 ng·h/mL; half-life (SD rats, Iv, 1 mg/kg): 5.82 h; Cmax (SD rats, Iv, 1 mg/kg): 5000 to 8000 ng/mL; AUC(0-t) (SD rats, Po, 1 mg/kg): 5000 to 10000 ng·h/mL; half-life (SD rats, Po, 1 mg/kg): 6.39 h; Cmax (SD rats, Po, 1 mg/kg): 800 to 5000 ng/mL
Cc1nc(-c2nnn(C)c2COC(=O)N(C)CCC(C)(F)F)ccc1C#CC1CCC1C(=O)O (racemic) [compound 359]							1200 to 3000	800 to 5000	7.63	AUC(0-t) (in vivo, SD rats, Po, 1 mg/kg): 1200 to 3000 ng·h/mL; Cmax (in vivo, SD rats, Po, 1 mg/kg): 200 to 800 ng/mL; half-life (in vivo, po, 1 mg/kg, SD rats): 6.24 h
CCC[C@@H](C)OC(=O)Nc1c(-c2ccc(C#C[C@@H]3C[C@H]3C(=O)O)c(C)n2)nnn1C (mixture of isomers) [compound 224, trans-2-((2-methyl-6-(1-methyl-5-(((((R)-pentan-2-yl)oxy)carbonyl)amino)-1H-1,2,3-triazol-4-yl)pyridin-3-yl)ethynyl)cyclopropane-1-carboxylic acid]	4.78	3.76	5000 to 10000	800 to 5000	5000 to 10000	800 to 5000				
Cc1nc(-c2nnn(C)c2NC(=O)O[C@H](C)CC(C)(F)F)ccc1C#C[C@@H]1CC[C@H]1C(=O)O (mixture of isomers) [compound 213, trans-2-((6-(5-(((((R)-4,4-difluoropentan-2-yl)oxy)carbonyl)amino)-1-methyl-1H-1,2,3-triazol-4-yl)-2-methylpyridin-3-yl)ethynyl)cyclobutane-1-carboxylic acid]	10.4	9.97	5000 to 10000	800 to 5000	5000 to 10000	200 to 800				
Cc1nc(-c2nnn(C)c2NC(=O)OC(C)CCC(F)F)ccc1C#CC1(CC(=O)O)CC1 (stereo not drawn) [compound 283, 2-(1-((6-(5-((((5,5-difluoropentan-2-yl)oxy)carbonyl)amino)-1-methyl-1H-1,2,3-triazol-4-yl)-2-methylpyridin-3-yl)ethynyl)cyclopropyl)acetic acid]	7.36	6.9	5000 to 10000	800 to 5000	5000 to 10000	200 to 800				
Cc1nc(-c2nnn(C)c2NC(=O)OC(C)CCCF)ccc1C#CC1(CC(=O)O)CC1 (single isomer, unassigned) [280-B]							5000 to 10000	800 to 5000	6.47	AUC(0-t) (in vivo, SD rats, Po, 3 mg/kg): 10000 to 20000 ng·h/mL; Cmax (in vivo, SD rats, Po, 3 mg/kg): 800 to 5000 ng/mL; half-life (in vivo, po, 3 mg/kg, SD rats): 6.57 h
Cc1nc(-c2nnn(C)c2NC(=O)O[C@H](C)CCC(C)(F)F)ccc1C#CC1(CC(=O)O)CC1 [compound 314]							3000 to 5000	800 to 5000	8.42	AUC(0-t) (in vivo, SD rats, Po, 1 mg/kg): 5000 to 10000 ng·h/mL; Cmax (in vivo, SD rats, Po, 1 mg/kg): 200 to 800 ng/mL; half-life (in vivo, po, 1 mg/kg, SD rats): 6.41 h
CCCc1ccnc(NCc2c(-c3ccc(C#CC4(CC(=O)O)CC4)c(C)n3)nnn2C)n1 [compound 365]										AUC(0-t) (SD rats, Iv, 1 mg/kg): 1200 to 3000 ng·h/mL; half-life (SD rats, Iv, 1 mg/kg): 7.21 h; Cmax (SD rats, Iv, 1 mg/kg): 800 to 5000 ng/mL; AUC(0-t) (SD rats, Po, 1 mg/kg): 1200 to 3000 ng·h/mL; half-life (SD rats, Po, 1 mg/kg): 5.98 h; Cmax (SD rats, Po, 1 mg/kg): 200 to 800 ng/mL
Cc1nc(-c2nnn(C)c2NC(=O)O[C@H](C)CC(C)(C)F)ccc1C#C[C@@H]1CC[C@H]1C(=O)O [compound 306]							3000 to 5000	800 to 5000	7.66	AUC(0-t) (in vivo, SD rats, Po, 1 mg/kg): 3000 to 5000 ng·h/mL; Cmax (in vivo, SD rats, Po, 1 mg/kg): 200 to 800 ng/mL; half-life (in vivo, po, 1 mg/kg, SD rats): 7.2 h
Cc1nc(-c2nnn(C)c2NC(=O)OC(C)CC(C)(F)F)ccc1C#CC1CC1C(=O)O (stereo not drawn) [compound 291]							5000 to 10000	800 to 5000	4.68	AUC(0-t) (in vivo, SD rats, Po, 1 mg/kg): 3000 to 5000 ng·h/mL; Cmax (in vivo, SD rats, Po, 1 mg/kg): 800 to 5000 ng/mL; half-life (in vivo, po, 1 mg/kg, SD rats): 5.15 h
CCCN(C)C(=O)OCc1c(-c2ccc(C#C[C@@H]3CCC[C@H]3C(=O)O)c(C)n2)nnn1C [compound 355]	6.65	5.53	1200 to 3000	800 to 5000	1200 to 3000	200 to 800				
Cc1nc(-c2nnn(C)c2NC(=O)O[C@H](C)c2ccccc2)ccc1C#C[C@@H]1C[C@H]1C(=O)O [compound 295]	3.46	3.49	5000 to 10000	800 to 5000	10000 to 20000	800 to 5000				
Cc1nc(-c2nnn(C)c2NC(=O)OC(C)C23CC(F)(C2)C3)ccc1C#CC1(CC(=O)O)CC1 (stereo not drawn) [compound 285]			5000 to 10000	800 to 5000	3000 to 5000	200 to 800				half-life (male, SD rats, Iv, 1 mg/kg): 9.86 h; half-life (male, SD rats, Po, 1 mg/kg): 6.12 h
Cc1nc(-c2nnn(C)c2NC(=O)OC(C)C23CC(C2)C3)ccc1C#CC1(CC(=O)O)CC1 (racemic) [compound 260]										AUC(0-t) (SD rats, Iv, 1 mg/kg): 5000 to 10000 ng·h/mL; half-life (SD rats, Iv, 1 mg/kg): 8.44 h; Cmax (SD rats, Iv, 1 mg/kg): 800 to 5000 ng/mL; AUC(0-t) (SD rats, Po, 1 mg/kg): 5000 to 10000 ng·h/mL; half-life (SD rats, Po, 1 mg/kg): 9.12 h; Cmax (SD rats, Po, 1 mg/kg): 200 to 800 ng/mL
